The text below walks through data of patent US20220117968A1, “THIENO[2,3-D)PYRIMIDINES AND BENZOFURO(3,2-D)PYRIMIDINES AS ANTIMICROBIAL AGENTS” (Saint Louis University, priority 2017, published 2022).

One experiment relates to WT Mtb Erdman strain. The experiment is described as follows: Microplate Alamar Blue Assay (MABA). Type of experiment: cell-based. The conditions noted are these: Mycobacterium tuberculosis, Middlebrook 7H9 media, 7 days at 37° C., resazurin 24 hours; for MIC50: concentration that inhibits mycobacterial survival by 50%, read-out: MABA MIC50; for MIC90: concentration that inhibits mycobacterial survival by 90%, read-out: MABA MIC90. For orientation: The colour change of resazurin is a common sign of viable cells or microbes.

The test system of a further experiment is WT Mtb Erdman. The experiment can be described thus: Disk zone of inhibition assay. It counts as cell-based. The conditions noted are these: Mycobacterium tuberculosis, 240 h, radius of zone absent of bacterial growth, 5 μl of 100 mM stock in DMSO on disk, Middlebrook 7H10 agar, 10 days at 37° C.

Values after ≈ are worked out from the molar mass of the structure shown.

By MIC50 is commonly meant the lowest concentration that inhibits either 50% of growth or 50% of the strains tested, depending on the study. The term MIC90 denotes an inhibitory concentration at the 90% level, which refers to growth in some studies and to a panel of isolates in others. What is called zone of inhibition is the extent of the growth-free halo in a diffusion test. As for `CCCCNc1nc(C)nc2sc3c(c12)CCCC3` [Example 0881, N-butyl-5-methyl-8-thia-4,6-diazatricyclo[7.4.0.0^2,^7]trideca-1(9),2,4,6-tetraen-3-amine], in the experiment with WT Mtb Erdman strain, the MIC50 came out at 6.45 µM (≈ 1.78 µg/mL) and the MIC90 stood at 13.4 µM (≈ 3.69 µg/mL). Further, in the experiment with WT Mtb Erdman, the zone of inhibition at 100000 µM (stock) was found to be 7 mm.

`CCCCNc1nc(C)nc2c1oc1ccccc12` [Example 0927, N-butyl-4-methyl-8-oxa-3,5-diazatricyclo[7.4.0.0^2,^7]trideca-1(9),2(7),3,5,10,12-hexaen-6-amine]: in the experiment on WT Mtb Erdman strain, the MIC50 was determined as 1.77 µM (≈ 0.452 µg/mL) and the MIC90 was 4.02 µM (≈ 1.03 µg/mL). Besides, in the experiment with WT Mtb Erdman, the zone of inhibition at 100000 µM (stock) is 10 mm.

As for `CCc1nc(NCCCO)c2cc(C)sc2n1` [Example 0936, 3-({2-ethyl-6-methylthieno[2,3-d]pyrimidin-4-yl}amino)propan-1-ol], in the experiment with WT Mtb Erdman strain, the MIC50 is 26 µM (≈ 6.54 µg/mL) and the MIC90 amounted to 48.2 µM (≈ 12.1 µg/mL). In the experiment on WT Mtb Erdman, this compound came in with a zone of inhibition at 100000 µM (stock) of 0.75 mm.

`CCc1nc(NCCCOC)c2cc(C)sc2n1` [Example 0941, 2-ethyl-N-(3-methoxypropyl)-6-methylthieno[2,3-d]pyrimidin-4-amine]: in the experiment with WT Mtb Erdman strain, the MIC50 was 7.79 µM (≈ 2.07 µg/mL) and the MIC90 came to 16.3 µM (≈ 4.33 µg/mL). This compound also returned a zone of inhibition at 100000 µM (stock) with WT Mtb Erdman of 4 mm.

Take `CCc1nc(N2CCCCC2)c2cc(C)sc2n1` [Example 0942, 1-{2-ethyl-6-methylthieno[2,3-d]pyrimidin-4-yl}piperidine]: in the experiment with WT Mtb Erdman strain, the MIC50 amounted to 47.5 µM (≈ 12.4 µg/mL) and the MIC90 was more than 50 µM. In the experiment on WT Mtb Erdman, this compound displayed a zone of inhibition at 100000 µM (stock) of 5 mm.

For `CCc1nc(N(CC)CC)c2cc(C)sc2n1` [Example 0943, N,N,2-triethyl-6-methylthieno[2,3-d]pyrimidin-4-amine], in the experiment on WT Mtb Erdman strain, the MIC50 was more than 50 µM and the MIC90 was more than 50 µM. Besides, the zone of inhibition at 100000 µM (stock) with WT Mtb Erdman stood at 4 mm.

Regarding `CCc1nc(NC2CC2)c2cc(C)sc2n1` [Example 0946, N-Cyclopropyl-2-ethyl-6-methylthieno[2,3-d]pyrimidin-4-amine], in the experiment with WT Mtb Erdman strain, the MIC50 came to 0.633 µM (≈ 0.148 µg/mL) and the MIC90 worked out at 2.04 µM (≈ 0.476 µg/mL). In addition, the zone of inhibition at 100000 µM (stock) in the experiment on WT Mtb Erdman was determined as 27 mm.

On to `CCc1nc(NCCOC)c2cc(C)sc2n1` [Example 0950, 2-ethyl-N-(2-methoxyethyl)-6-methylthieno[2,3-d]pyrimidin-4-amine], for which, in the experiment on WT Mtb Erdman strain, the MIC50 came to 15.9 µM (≈ 4 µg/mL) and the MIC90 turned out to be 28.4 µM (≈ 7.14 µg/mL). The same compound returned a zone of inhibition at 100000 µM (stock) with WT Mtb Erdman of 0 mm.

In the case of `CCc1nc(NC2CCCC2)c2cc(C)sc2n1` [Example 0951, N-cyclopentyl-2-ethyl-6-methylthieno[2,3-d]pyrimidin-4-amine], in the experiment on WT Mtb Erdman strain, the MIC50 was more than 50 µM and the MIC90 is more than 50 µM. The zone of inhibition at 100000 µM (stock) in the experiment on WT Mtb Erdman turned out to be 1 mm.

In the case of `CCc1nc(NC2CCC2)c2cc(C)sc2n1` [Example 1019, N-Cyclobutyl-2-ethyl-6-methylthieno[2,3-d]pyrimidin-4-amine], in the experiment on WT Mtb Erdman strain, the MIC50 was 11.1 µM (≈ 2.75 µg/mL) and the MIC90 worked out at 26.4 µM (≈ 6.53 µg/mL). The compound further came in with a zone of inhibition at 100000 µM (stock) with WT Mtb Erdman of 10 mm.

`CCCCN(C)c1nc(CC)nc2sc(C)cc12` [Example 1021, N-Butyl-2-ethyl-N,6-dimethylthieno[2,3-d]pyrimidin-4-amine]: in the experiment with WT Mtb Erdman strain, the MIC50 is 3.93 µM (≈ 1.04 µg/mL) and the MIC90 turned out to be 9.81 µM (≈ 2.58 µg/mL). Besides, the zone of inhibition at 100000 µM (stock) in the experiment with WT Mtb Erdman came out at 10 mm.

For the compound `CCc1nc(NCCC(C)C)c2cc(C)sc2n1` [Example 1022, 2-Ethyl-6-methyl-N-(3-methylbutyl)thieno[2,3-d]pyrimidin-4-amine], in the experiment with WT Mtb Erdman strain, the MIC50 was 0.329 µM (≈ 0.0867 µg/mL) and the MIC90 was 0.96 µM (≈ 0.253 µg/mL). Further, the zone of inhibition at 100000 µM (stock) in the experiment on WT Mtb Erdman came out at 14 mm.

Turning to `CCc1nc(N)c2cc(C)sc2n1` [Example 1060, 2-Ethyl-6-methyl-thieno[2,3-d]pyrimidin-4-amine], in the experiment on WT Mtb Erdman strain, the MIC50 stood at 10 µM (≈ 1.93 µg/mL) and the MIC90 is 17.2 µM (≈ 3.32 µg/mL). The same compound registered a zone of inhibition at 100000 µM (stock) in the experiment with WT Mtb Erdman of 0 mm.

With `Cc1cc2c(NC3CC3)nc(C(C)C)nc2s1` [Example 1061, N-Cyclopropyl-2-isopropyl-6-methyl-thieno[2,3-d]pyrimidin-4-amine], in the experiment with WT Mtb Erdman strain, the MIC50 came to 0.615 µM (≈ 0.152 µg/mL) and the MIC90 is 1.28 µM (≈ 0.317 µg/mL). Further, the zone of inhibition at 100000 µM (stock) in the experiment on WT Mtb Erdman turned out to be 19 mm.

In the case of `CCc1nc(NC(C)(C)C)c2cc(C)sc2n1` [Example 1069, N-tert-Butyl-2-ethyl-6-methyl-thieno[2,3-d]pyrimidin-4-amine], in the experiment on WT Mtb Erdman strain, the MIC50 is 30.9 µM (≈ 7.71 µg/mL) and the MIC90 was more than 50 µM. In the experiment with WT Mtb Erdman, this compound showed a zone of inhibition at 100000 µM (stock) of 5 mm.

Regarding `CCc1nc(NCC(F)(F)F)c2cc(C)sc2n1` [Example 1072, 2-Ethyl-6-methyl-N-(2,2,2-trifluoroethyl)thieno[2,3-d]pyrimidin-4-amine], in the experiment on WT Mtb Erdman strain, the MIC50 worked out at 6.32 µM (≈ 1.74 µg/mL) and the MIC90 was 19.2 µM (≈ 5.29 µg/mL). In the experiment on WT Mtb Erdman, this compound had a zone of inhibition at 100000 µM (stock) of 9 mm.

In the case of `CCc1nc(NC2CC2)c2ccsc2n1` [Example 1074, N-Cyclopropyl-2-ethyl-thieno[2,3-d]pyrimidin-4-amine], in the experiment on WT Mtb Erdman strain, the MIC50 was 6.1 µM (≈ 1.34 µg/mL) and the MIC90 stood at 22.7 µM (≈ 4.98 µg/mL). For the same compound, in the experiment with WT Mtb Erdman, the zone of inhibition at 100000 µM (stock) turned out to be 21 mm.

For the compound `CCc1nc(NCCCC(F)(F)F)c2ccsc2n1` [Example 1366, 2-Ethyl-N-(4,4,4-trifluorobutyl)thieno[2,3-d]pyrimidin-4-amine], in the experiment on WT Mtb Erdman strain, the MIC50 was 0.00133 µM (≈ 0.000385 µg/mL) and the MIC90 turned out to be 0.00369 µM (≈ 0.00107 µg/mL). In addition, in the experiment with WT Mtb Erdman, the zone of inhibition at 100000 µM (stock) was found to be 14 mm.

On to `FC(F)(F)CCCNc1nc(C(F)(F)F)nc2sccc12` [Example 1548, N-(4,4,4-Trifluorobutyl)-2-(trifluoromethyl)thieno[2,3-d]pyrimidin-4-amine], for which, in the experiment with WT Mtb Erdman strain, the MIC50 was 12.3 µM (≈ 4.05 µg/mL) and the MIC90 was determined as 13.7 µM (≈ 4.51 µg/mL).

With `FC(F)(F)CCCNc1nc(C(F)(F)C(F)(F)F)nc2sccc12` [Example 1549, 2-(Perfluoroethyl)-N-(4,4,4-trifluorobutyl)thieno[2,3-d]pyrimidin-4-amine], in the experiment on WT Mtb Erdman strain, the MIC50 came to 22.3 µM (≈ 8.46 µg/mL) and the MIC90 was determined as 24.2 µM (≈ 9.18 µg/mL).

With `Cc1cc2c(NCCCC(F)(F)F)nc(C(F)(F)F)nc2s1` [Example 1551, 6-Methyl-N-(4,4,4-trifluorobutyl)-2-(trifluoromethyl)thieno[2,3-d]pyrimidin-4-amine], in the experiment on WT Mtb Erdman strain, the MIC50 came to 0.846 µM (≈ 0.29 µg/mL) and the MIC90 amounted to 3.88 µM (≈ 1.33 µg/mL).

Take `CCc1nc(NCCCc2ccccc2)c2c(C)csc2n1` [Example 1698, 2-Ethyl-5-methyl-N-(3-phenylpropyl)thieno[2,3-d]pyrimidin-4-amine]: in the experiment on WT Mtb Erdman strain, the MIC50 amounted to 0.515 µM (≈ 0.16 µg/mL) and the MIC90 worked out at 3.67 µM (≈ 1.14 µg/mL).

Take `CCc1nc(NCCCC(F)(F)F)c2c(C)csc2n1` [Example 1700, 2-Ethyl-5-methyl-N-(4,4,4-trifluorobutyl)thieno[2,3-d]pyrimidin-4-amine]: in the experiment on WT Mtb Erdman strain, the MIC50 was 26.8 µM (≈ 8.13 µg/mL) and the MIC90 was found to be 30.7 µM (≈ 9.31 µg/mL).

Turning to `Cc1cccc(-c2nc(NCCCc3ccccc3)c3c(C)csc3n2)n1` [Example 1709, 5-methyl-2-(6-methylpyridin-2-yl)-N-(3-phenylpropyl)thieno[2,3-d]pyrimidin-4-amine], in the experiment with WT Mtb Erdman strain, the MIC50 turned out to be 2.56 µM (≈ 0.959 µg/mL) and the MIC90 is 19.7 µM (≈ 7.38 µg/mL).

Regarding `Cc1cccc(-c2nc(NCCCC(F)(F)F)c3c(C)csc3n2)n1` [Example 1711, 5-methyl-2-(6-methylpyridin-2-yl)-N-(4,4,4-trifluorobutyl)thieno[2,3-d]pyrimidin-4-amine], in the experiment with WT Mtb Erdman strain, the MIC50 is 6.48 µM (≈ 2.37 µg/mL) and the MIC90 was 19.4 µM (≈ 7.11 µg/mL).
